Reference: the supplement of paper PMC11061612

Experiments:
[1] = test system: EPLC-272H (Other Solid Carcinomas); assay: Bliss excess, mean over the matrix (fraction); higher = more synergy
Method in brief: (§1)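 Cell lines grown in DMEM/F12 or RPMI with 10% FBS were plated in 1536-well plates and held 24 hours at 37°C, 5% CO2 before 72 hours of exposure to two-drug dose matrices, with DMSO typically at 0.2%. CellTiter-Glo 2.0 luminescence gave viability, which was converted to inhibition. Vehicle wells were set to 0 and blank wells to 1. Combination Emax is the second-highest inhibition in the matrix, and Bliss excess is the observed combination effect minus the expected EA + EB − EA·EB, where EA and EB are the single-agent effects.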

[2] = test system: NCI-H716 (Colorectal Carcinoma); assay: as above
Method in brief: as §1

[3] = test system: HT55 (Colorectal Carcinoma); assay: as above
Method in brief: as §1

PEO1 (Ovarian Carcinoma) = assay: as above
Method in brief: as §1

[4] = test system: A2780 (Ovarian Carcinoma); assay: as above
Method in brief: as §1

EW-16 (Ewing's Sarcoma) = assay: combination Emax (second highest fraction inhibited in the dose matrix, 72 h); higher = more inhibition; extreme values may be limits of the assay
Method in brief: as §1

[5] = test system: NCI-H2228 (Lung Adenocarcinoma); assay: as above
Method in brief: as §1

AU565 (Breast Carcinoma) = assay: as above
Method in brief: as §1

COLO-792 (Melanoma) = assay: as above
Method in brief: as §1

[6] = test system: G-402 (Other Solid Carcinomas); assay: as above
Method in brief: as §1

[7] = test system: A253 (Head and Neck Carcinoma); assay: as above
Method in brief: as §1

[8] = test system: NCI-H1651 (Lung Adenocarcinoma); assay: as above
Method in brief: as §1

NB13 (Neuroblastoma) = assay: as above
Method in brief: as §1

IM-9 (Non-Cancerous) = assay: as above
Method in brief: as §1

A204 (Rhabdomyosarcoma) = assay: as above
Method in brief: as §1

RH-41 (Rhabdomyosarcoma) = assay: as above
Method in brief: as §1

[9] = test system: CA46 (Burkitt's Lymphoma); assay: as above
Method in brief: as §1

[10] = test system: SW620 (Colorectal Carcinoma); assay: as above
Method in brief: as §1

[11] = test system: JHH-2 (Hepatocellular Carcinoma); assay: as above
Method in brief: as §1

[12] = test system: OACp4C (Esophageal Adenocarcinoma); assay: as above
Method in brief: as §1
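Wherever Bliss excess, mean over the matrix is given: after 72 h of two-drug dosing.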

Compound	Bliss excess [1]	Bliss excess [2]	Bliss excess [3]	Bliss excess (PEO1 (Ovarian Carcinoma))	Bliss excess [4]	combination Emax (EW-16 (Ewing's Sarcoma))	combination Emax [5]	combination Emax (AU565 (Breast Carcinoma))	combination Emax (COLO-792 (Melanoma))	combination Emax [6]	combination Emax [7]	combination Emax [8]	combination Emax (NB13 (Neuroblastoma))	combination Emax (IM-9 (Non-Cancerous))	combination Emax (A204 (Rhabdomyosarcoma))	combination Emax (RH-41 (Rhabdomyosarcoma))	combination Emax [9]	combination Emax [10]	combination Emax [11]	combination Emax [12]
COc1cccc(OCCCN)c1-c1cc(Nc2cnc(C#N)cn2)n[nH]1 [Prexasertib] + O=C(c1cc(Cc2n[nH]c(=O)c3ccccc23)ccc1F)N1CCN(C(=O)C2CC2)CC1 [Olaparib] (first compound max 1 µM, 7x7, partner max 10 µM)	-0.0631	-0.0673	-0.0102	-0.0183	-0.0298	0.793	0.726	0.735	0.322	0.524	0.794	0.797	0.881	1	0.584	0.95	0.464	0.711	0.9	0.642
Cn1cnc2c(F)c(Nc3ccc(Br)cc3Cl)c(C(=O)NOCCO)cc21 [Selumetinib] + CCN(CCO)CCCOc1ccc2c(Nc3cc(CC(=O)Nc4cccc(F)c4)[nH]n3)ncnc2c1 [AZD2811] (first compound max 10 µM, 7x7, partner max 1 µM)	0.0426	0.044	0.0032	-0.0252	0.0251	0.551	0.296	0.2	0.51	0.578	0.348	0.209	0.367	0.995	0.286	0.309	0.312	0.863	0.325	0.838
Cn1cnc2c(F)c(Nc3ccc(Br)cc3Cl)c(C(=O)NOCCO)cc21 [Selumetinib] + C[C@@H]1COCCN1C2=NC(=NC(=C2)C3(CC3)[S@](=N)(=O)C)C4=C5C=CNC5=NC=C4 [AZD6738] (first compound max 10 µM, 7x7, partner max 10 µM)	-0.0497	-0.0341	0.004	-0.0357	0.0429	0.587	0.405	0.315	0.589	0.645	0.636	0.377	0.855	0.981	0.388	0.736	0.579	0.781	0.641	0.856
COc1cccc2c1C(=O)c1c(O)c3c(c(O)c1C2=O)C[C@@](O)(C(=O)CO)C[C@@H]3O[C@H]1C[C@H](N)[C@H](O)[C@H](C)O1 [Doxorubicin] + Cc1cc2ncnn2cc1Nc1ncc2c(n1)n(C1CCOCC1)c(=O)n2C [AZD7648] (first compound max 1 µM, 7x7, partner max 10 µM)	0.0568	0.0113	0.0622	-0.0214	0.0194	0.913	0.742	0.733	0.445	0.949	0.957	0.712	0.923	1	0.925	0.95	0.777	0.787	0.627	0.783
CN(C)CCCOc1ccc(-c2ccc3ncc4c(c3c2)n(C2CCOCC2)c(=O)n4C)cn1 [AZD0156] + O=C(c1cc(Cc2n[nH]c(=O)c3ccccc23)ccc1F)N1CCN(C(=O)C2CC2)CC1 [Olaparib] (first compound max 3 µM, partner max 3 µM)	-0.0122	0.002	0.0254	-0.0891	0.198	0.412	0.439	0.631	0.294	0.41	0.186	0.493		0.656	0.467	0.586	0.567	0.337	0.319	0.406
CN(C)CCCOc1ccc(-c2ccc3ncc4c(c3c2)n(C2CCOCC2)c(=O)n4C)cn1 [AZD0156] + CCN(CCO)CCCOc1ccc2c(Nc3cc(CC(=O)Nc4cccc(F)c4)[nH]n3)ncnc2c1 [AZD2811] (first compound max 1 µM, 7x7, partner max 1 µM)	0.0394	-0.0063	0.0091	-0.0421	0.0336	0.423	0.384	0.208	0.358	0.532	0.212	0.107	0.479	0.944	0.297	0.235	0.291	0.158	0.287	0.598
Cc1c2c(nn1C)CSCc1cc(n(C)n1)CSc1cc(c3ccccc3c1)OCCCc1c(C(=O)O)n(C)c3c-2c(Cl)ccc13 [AZD5991] + CC1(C)CCC(CN2CCN(c3ccc(C(=O)NS(=O)(=O)c4ccc(NCC5CCOCC5)c([N+](=O)[O-])c4)c(Oc4cnc5[nH]ccc5c4)c3)CC2)=C(c2ccc(Cl)cc2)C1 [Venetoclax] (first compound max 1 µM, 7x7, partner max 1 µM)	-0.015	-0.0436	-0.0244	-0.0145	0.0777	0.273	0.184	1	0.997	0.926	0.868	0.213	0.546	1	0.513	1	0.118	0.191	0.218	0.74
COc1nnc2ccc(N3CCC(c4ccc(OCCN5CCN(C)C(=O)[C@H]5C)cc4)CC3)nn12 [AZD5153] + C[C@@H]1COCCN1C2=NC(=NC(=C2)C3(CC3)[S@](=N)(=O)C)C4=C5C=CNC5=NC=C4 [AZD6738] (first compound max 1 µM, 7x7, partner max 10 µM)	-0.0629	-0.0312	0.0392	0.0911	-0.0058	0.747	0.594	0.502	0.72	0.941	0.736	0.767	0.917	0.963	0.573	0.99	0.754	0.784	0.711	0.856
COc1cccc(OCCCN)c1-c1cc(Nc2cnc(C#N)cn2)n[nH]1 [Prexasertib] + CN(C)CCCOc1ccc(-c2ccc3ncc4c(c3c2)n(C2CCOCC2)c(=O)n4C)cn1 [AZD0156] (first compound max 1 µM, 7x7, partner max 1 µM)	-0.0602	0.025	0.0444	-0.0168	0.0127	0.516	0.664	0.714	0.386	0.562	0.774	0.677	0.935	1	0.633	0.944	0.745	0.696	0.837	0.672
C=CCn1c(=O)c2cnc(Nc3ccc(N4CCN(C)CC4)cc3)nc2n1-c1cccc(C(C)(C)O)n1 [AZD1775] + C1CN(CCC1(C(=O)N[C@@H](CCO)C2=CC=C(C=C2)Cl)N)C3=NC=NC4=C3C=CN4 [Capivasertib] (first compound max 3 µM, partner max 3 µM)	-0.0011	-0.034	-0.125	-0.0697	0.0361	0.888	0.59	0.833	0.651	0.619	0.848	0.794		1	0.529	0.801	0.843	0.8	0.625	0.889
Cc1c2c(nn1C)CSCc1cc(n(C)n1)CSc1cc(c3ccccc3c1)OCCCc1c(C(=O)O)n(C)c3c-2c(Cl)ccc13 [AZD5991] + CN(C)CCCOc1ccc(-c2ccc3ncc4c(c3c2)n(C2CCOCC2)c(=O)n4C)cn1 [AZD0156] (first compound max 1 µM, 7x7, partner max 1 µM)	0.0047	0.0233	0.0318	-0.0155	-0.0094	0.29	0.307	1	1	0.965	0.908	0.212	0.282	0.608	0.729	1	0.294	0.294		0.469
Cc1c2c(nn1C)CSCc1cc(n(C)n1)CSc1cc(c3ccccc3c1)OCCCc1c(C(=O)O)n(C)c3c-2c(Cl)ccc13 [AZD5991] + C=CCn1c(=O)c2cnc(Nc3ccc(N4CCN(C)CC4)cc3)nc2n1-c1cccc(C(C)(C)O)n1 [AZD1775] (first compound max 1 µM, partner max 1 µM)	0.0188		0.0215	0.0146	-0.0313	0.507	0.55	1	0.988	0.965	0.904	0.813	0.902	0.986	0.829	1	0.633	0.65	0.58	0.951
CCc1c2c(nc3ccc(O)cc13)-c1cc3c(c(=O)n1C2)COC(=O)[C@]3(O)CC [SN-38] + O=C(c1cc(Cc2n[nH]c(=O)c3ccccc23)ccc1F)N1CCN(C(=O)C2CC2)CC1 [Olaparib] (first compound max 0.3 µM, 7x7, partner max 10 µM)	0.071		0.0966	0.0523	0.0545	0.981		0.891	0.484	0.829	0.938	0.902	0.832	1				0.822	0.618	0.637
